Literature values as cited in article PMC5857253 (Bioorganic chemistry, 2018).

Biological target: β-galactosidase (A. oryzae) (Aspergillus oryzae, UniProt Q2UCU3)
Details: methods described by Bartlett et al.

β-galactosidase (A. oryzae), sequence (Q2UCU3 19-1005): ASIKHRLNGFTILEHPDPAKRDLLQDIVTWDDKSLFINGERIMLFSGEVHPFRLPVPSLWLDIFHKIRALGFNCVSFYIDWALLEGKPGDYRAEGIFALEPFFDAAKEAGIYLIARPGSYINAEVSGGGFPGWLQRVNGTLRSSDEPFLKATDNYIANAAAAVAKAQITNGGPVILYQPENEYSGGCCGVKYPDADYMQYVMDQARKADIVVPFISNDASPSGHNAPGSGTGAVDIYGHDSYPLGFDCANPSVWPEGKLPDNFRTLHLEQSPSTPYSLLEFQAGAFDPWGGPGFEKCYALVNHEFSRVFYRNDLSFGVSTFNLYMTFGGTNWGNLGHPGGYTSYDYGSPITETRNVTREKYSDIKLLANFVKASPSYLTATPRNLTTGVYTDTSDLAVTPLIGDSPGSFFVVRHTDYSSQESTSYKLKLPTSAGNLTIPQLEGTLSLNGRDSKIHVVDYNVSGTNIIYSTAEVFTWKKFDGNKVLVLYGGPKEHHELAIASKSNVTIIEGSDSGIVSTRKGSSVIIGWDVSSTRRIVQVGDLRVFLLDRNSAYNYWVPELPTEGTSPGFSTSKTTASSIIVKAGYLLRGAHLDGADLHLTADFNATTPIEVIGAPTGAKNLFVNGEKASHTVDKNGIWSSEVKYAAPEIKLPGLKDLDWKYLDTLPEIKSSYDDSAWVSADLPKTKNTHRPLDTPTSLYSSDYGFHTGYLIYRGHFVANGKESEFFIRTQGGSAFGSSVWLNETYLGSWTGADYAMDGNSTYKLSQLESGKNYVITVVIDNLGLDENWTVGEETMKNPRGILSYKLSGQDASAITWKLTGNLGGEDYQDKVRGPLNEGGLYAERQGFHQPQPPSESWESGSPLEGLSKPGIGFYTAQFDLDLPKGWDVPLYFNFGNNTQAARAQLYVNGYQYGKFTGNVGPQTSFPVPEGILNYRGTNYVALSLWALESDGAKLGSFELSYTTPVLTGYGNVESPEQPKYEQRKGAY

## Cc1ccc(C/N=C2\N[C@H](CO)[C@H](O)[C@H](O)[C@H]2O)cc1 [1a, p-methylbenzyl galactonoamidine]
  classification as putative transition state analog (TSA): characterized as a putative transition state analog
